Measured values taken from patent US20070043064A1, “7-Substituted 3-nitro-pyrazo[1,5-a] pyrimidines” (FERRER INTERNACIONAL S.A., priority 2003, published 2007).
Where two headings read alike, the source gives them in different places.

Experiments:
male CD1 mice = experiment: Predictive sedation-hypnosis test in mice (motor activity, crossings); type: in vivo; conditions: single equimolecular intraperitoneal dose, crossings over 30 min after dosing (first 5 min discarded) versus control animals
Method: In Vivo Determination of Predictive Sedative-Hypnotic Action.
The in vivo effects of these compounds were assessed by a predictive sedation-hypnosis test in mice (D. J. Sanger et al., Eur. J. Pharmacol., 313, 35-42, 1996; and G. Griebel et al., Psychopharmacology, 146, 205-213, 1999).
Groups of 5-8 male CD1 mice, weighing 22-26 g at the time of test, were used. The test compounds were administered in single equimolecular intraperitoneal doses, suspended in 0.25% agar with one drop of Tween in a volume of 10 ml/kg. Control animals received the vehicle alone. Using an Actisystem DAS16 (Panlab, S. L., Spain) the crossings (number of counts) were recorded for each mouse at 5-min intervals during a period of 30 minutes after dosing. The inhibition percentage of crossings of treated animals versus control animals (the first 5 min were discarded) was calculated.

α1-GABAA receptor = biological target: T1, α1-GABAA receptor (Rattus norvegicus, UniProt P62813); experiment: Ligand-binding assay, radiolabeled flumazenil competition, cerebellum membranes
T1 construct: the cerebellum (tissue that mostly contains α1-GABAA receptor); from tissue; host or cells: rat cerebellum membranes
Method: (§1) Ligand-Binding Assays. Determination of the Affinity of Test Compounds for α1- and α2-GABAA Receptors.
(§2) Male Sprague-Dawley rats weighing 200-250 g at the time of experiment were used. After decapitation of the animal, the cerebellum (tissue that mostly contains α1-GABAA receptor) and spinal cord (tissue that mostly contains α2-GABAA receptor) were removed. The membranes were prepared according to the method by J. Lameh et al. (Prog. Neuro-Psychopharmacol. Biol. Psychiatry, 24, 979-991, 2000). Once the tissues weighed, they were suspended in 50 mM Tris HCl buffer, pH 7.7, (1:40 v/v), homogenized and then centrifuged at 20000 g for 10 min at 7° C. The resulting pellet was resuspended under the same conditions and centrifuged again. The final pellet obtained was resuspended on a minimum volume and kept at −80° C. overnight. On the next day, the process was repeated until the final pellet was resuspended at a ratio of 1:10 (v/v).
(§3) The affinity of the compounds was determined by competitive tests using radiolabeled flumazenil as ligand. The methods described by S. Arbilla et al. (Eur. J. Pharmacol., 130, 257-263, 1986); and Y. Wu et al. (Eur. J. Pharmacol., 278, 125-132, 1995) were used. The membranes containing the study receptors, flumazenil (radiolabeling at a final concentration of 1 nM) and ascending concentrations of test compounds (in a total volume of 500 μl in […] [ph 7.4] Tris HCl buffer) were incubated. Simultaneously, the membranes were only incubated with the radiolabeled flumazenil (total binding, 100%) and in the presence of an elevated concentration of unradiolabeled flumazenil (non-specific binding, % estimate of radiolabeled ligand). The reactions started on adding the radiolabeled ligand followed by incubation for 60 minutes at 0° C. At the end of the incubation period, the tubes were filtered using a Brandel Mod. M-48R harvester and then washed three times with cold test buffer. The harvester was fitted with a GF/B filter that retained the membranes containing the receptors and the radiolabeled ligand which had been bound to the receptors. Then the filters were removed and left till dry. Once dried, the filters were cut, placed in vials with scintillation liquid and left under stirring overnight. The next day the filters were counted using a Packard Mod. Tricarb scintillation counter.
(§4) T: total binding, maximum amount bound to the radiolabeled ligand. N: Non-specific binding, amount of radiolabeled ligand bound in a non-specific way irrespective of the receptor used.
(§5) Every concentrations of compound were tested in duplicate and their mean values were used to determine the experimental values of % specific binding versus the concentration of compound. […] Inhibition constants (Ki) were calculated from the IC50 values according to Cheng-Prusoff's formula (Y. Cheng y W. H. Prusoff, Biochem. Pharmacol., 22(23), 3099-3108, 1973).

α2-GABAA receptor = α2-GABAA receptor (Rattus norvegicus, UniProt P18508+P23576); experiment: Ligand-binding assay, radiolabeled flumazenil competition, spinal cord membranes; conditions: for inhibition at 10 µM: compound at 10^−5M; for inhibition at 0.1 µM: compound at 10^−7M
Method: as §1, §2, §3, §4, §5

[1] = read-out: Affinity for α1-GABAA receptor, Ki

SMILES | % Inhibition Motor Activity (male CD1 mice) [%] | Ki (α1-GABAA receptor) [µM] | melting point [°C] | also measured
CCN(C(C)=O)c1cccc(-c2ccnc3c([N+](=O)[O-])cnn23)c1 [Example 1, N-ethyl-N-[3-(3-nitro-pyrazolo[1,5-a]pyrimidin-7-yl)-phenyl]-acetamide] | 77.25 | 0.0886 | 176 to 178 | 
C#CCN(c1cccc(-c2ccnc3c([N+](=O)[O-])cnn23)c1)S(C)(=O)=O [Example 28, N-[3-(3-nitro-pyrazolo[1,5-a]pyrimidin-7-yl)-phenyl]-N-(prop-2-inyl)-methanesulfonamide] | 94.19 | 0.0117 |  | inhibition at 10 µM (α2-GABAA receptor): 96.4%; inhibition at 0.1 µM (α2-GABAA receptor): 29%
CCCN(c1cccc(-c2ccnc3c([N+](=O)[O-])cnn23)c1)S(C)(=O)=O [Example 25, N-[3-(3-nitro-pyrazolo[1,5-a]pyrimidin-7-yl)-phenyl]-N-(n-propyl)-methanesulfonamide] | 61.06 | 0.102 | 165 to 167 | 
CCN(c1cccc(-c2ccnc3c([N+](=O)[O-])cnn23)c1)S(C)(=O)=O [Example 15, N-ethyl-N-[3-(3-nitro-pyrazolo[1,5-a]pyrimidin-7-yl)-phenyl]-methanesulfonamide] |  | 0.0111 |  | 
O=[N+]([O-])c1cnn2c(-c3cccnc3)ccnc12 |  |  | 302 to 303 | 
CCCCN(c1cccc(-c2ccnc3c([N+](=O)[O-])cnn23)c1)S(C)(=O)=O |  |  | 153 to 155 | 
O=[N+]([O-])c1cnn2c(-c3cccc(C(F)(F)F)c3)ccnc12 [Example 8, 3-nitro-7-(3-trifluoromethyl-phenyl)-pyrazolo[1,5-a]pyrimidine] | 69.08 |  | 159 to 161 | Ki (α1-GABAA receptor; [1]): 0.623 µM
O=C1CCCN1c1cccc(-c2ccnc3c([N+](=O)[O-])cnn23)c1 |  |  | 226 to 228 | 
CCS(=O)(=O)N(C)c1cccc(-c2ccnc3c([N+](=O)[O-])cnn23)c1 [Example 32, N-[3-(3-nitro-pyrazolo[1,5-a]pyrimidin-7-yl)-phenyl]-N-methyl-ethanesulfonamide] | 91.57 | 0.031 |  | inhibition at 10 µM (α2-GABAA receptor): 89%; inhibition at 0.1 µM (α2-GABAA receptor): 21%
O=[N+]([O-])c1cnn2c(-c3cccs3)ccnc12 |  |  | 235 to 237 | 
COc1ccc(S(=O)(=O)N(C)c2cccc(-c3ccnc4c([N+](=O)[O-])cnn34)c2)cc1 |  |  | 205 to 206 | 
CC(C)S(=O)(=O)N(C)c1cccc(-c2ccnc3c([N+](=O)[O-])cnn23)c1 [Example 35, N-[3-(3-nitro-pyrazolo[1,5-a]pyrimidin-7-yl)-phenyl]-N-methyl-propane-2-sulfonamide] | 91.21 | 0.0412 |  | inhibition at 10 µM (α2-GABAA receptor): 91.5%; inhibition at 0.1 µM (α2-GABAA receptor): 18.9%
CN(c1cccc(-c2ccnc3c([N+](=O)[O-])cnn23)c1)S(C)(=O)=O [Example 18, N-methyl-N-[3-(3-nitro-pyrazolo[1,5-a]pyrimidin-7-yl)-phenyl]-methanesulfonamide] | 68.55 | 0.0283 |  | 
O=[N+]([O-])c1cnn2c(-c3ccco3)ccnc12 |  |  | 235 to 237 | 
C#CCN(c1cccc(-c2ccnc3c([N+](=O)[O-])cnn23)c1)S(=O)(=O)C(C)C [Example 31, N-[3-(3-nitro-pyrazolo[1,5-a]pyrimidin-7-yl)-phenyl]-N-(n-prop-2-inyl)-propane-2-sulfonamide] | 94.31 | 0.0485 |  | inhibition at 10 µM (α2-GABAA receptor): 81.3%; inhibition at 0.1 µM (α2-GABAA receptor): 4.2%
O=[N+]([O-])c1cnn2c(-c3ccccc3C(F)(F)F)ccnc12 |  |  | 195 to 197 | 
O=[N+]([O-])c1cnn2c(-c3ccncc3)ccnc12 |  |  | 241 to 244 | 
O=[N+]([O-])c1cnn2c(-c3ccc(C(F)(F)F)cc3)ccnc12 |  |  | 191 to 193 | 
CC(=O)N(C)c1cccc(-c2ccnc3c([N+](=O)[O-])cnn23)c1 [Example 2, N-methyl-N-[3-(3-nitro-pyrazolo[1,5-a]pyrimidin-7-yl)-phenyl]-acetamide] | 77.25 | 0.0968 |  | 
CCCCN(c1cccc(-c2ccnc3c([N+](=O)[O-])cnn23)c1)S(=O)(=O)c1ccccc1 |  |  | 159 to 160 | 
O=[N+]([O-])c1cnn2c(-c3cccc(N4CCCS4(=O)=O)c3)ccnc12 [Example 34, 7-(3-(2-isothiazolidinyl-1,1-dioxide)-phenyl)-3-nitro-pyrazolo[1,5-a]pyrimidine] | 64.23 |  |  | Ki (α1-GABAA receptor; [1]): 0.165 µM; inhibition at 10 µM (α2-GABAA receptor): 86.9%; inhibition at 0.1 µM (α2-GABAA receptor): 4.3%
CCN(c1cccc(-c2ccnc3c([N+](=O)[O-])cnn23)c1)S(=O)(=O)c1ccc(OC)cc1 |  |  | 209 to 211 | 
CCN(C(C)=O)c1cccc(-c2ccnc3c(C#N)cnn23)c1 [Zaleplon, zaleplon, reference compound] | 47.17 |  |  | inhibition at 10 µM (α2-GABAA receptor): 78.4%
CCCN(C(C)=O)c1cccc(-c2ccnc3c([N+](=O)[O-])cnn23)c1 [Example 3, N-[3-(3-nitro-pyrazolo[1,5-a]pyrimidin-7-yl)-phenyl]-N-(n-propyl)-acetamide] | 61.68 |  |  | Ki (α1-GABAA receptor; [1]): 0.11 µM
CCCN(c1cccc(-c2ccnc3c([N+](=O)[O-])cnn23)c1)S(=O)(=O)c1ccc(OC)cc1 |  |  | 184 to 185 | 
CCCN(c1cccc(-c2ccnc3c([N+](=O)[O-])cnn23)c1)S(=O)(=O)c1ccccc1 |  |  | 154 to 156 | 
C#CCN(C(C)=O)c1cccc(-c2ccnc3c([N+](=O)[O-])cnn23)c1 [Example 5, N-[3-(3-nitro-pyrazolo[1,5-a]pyrimidin-7-yl)-phenyl]-N-(2-propynyl)-acetamide] | 79.06 | 0.0386 |  | 
CCCCN(c1cccc(-c2ccnc3c([N+](=O)[O-])cnn23)c1)S(=O)(=O)c1ccc(OC)cc1 |  |  | 189 to 190 | 
